Experimental findings from patent US20170305943A1, “COMPOUNDS FOR THE TREATMENT OF BACTERIAL INFECTIONS” (priority 2014, published 2017) are described below.

The structures appear in SMILES notation. In brackets after ≈: the same amount, converted by molar mass.

In the assay the test system is Clostridium difficile (Isolate ID ATCC 9689). Put plainly: Bacterial Assay: Determination of Antibacterial Activity (MIC, broth microdilution or agar dilution). The class given is cell-based. As to conditions: Clostridioides difficile, ATCC9689, 48 h, read-out: C. difficile MIC Activity Range. How it is done:
Bacterial Assay: Determination of Antibacterial Activity Compounds of the invention were tested for antimicrobial activity by susceptibility testing in liquid or on solid media. Minimum inhibitory concentrations (MICs) for compounds against each strain were determined by the broth microdilution or agar dilution method according to the guidelines of the Clinical Laboratories and Standards Institute, formerly the National Committee for Clinical Laboratory Standards (Clinical Laboratories and Standards Institute. Methods for Dilution Antimicrobial Susceptibility Tests for Bacteria That Grow Anaerobically; Approved Standard-Seventh Edition. Document M11-A7, CLSI, Wayne, Pa., 2007, Clinical Laboratories and Standards Institute). Briefly MICs were determined by visible inspection after 48 hours of growth in the presence of compounds, cultures were grown at 37° C. in anaerobic gas packs using reinforced clostridial medium supplemented with 0.1% defribrinated horse blood. The bacterial strains tested include C. difficile (Clostridium difficile (Isolate ID ATCC 9689)) (Table 2) and two drug resistant clinical isolates (Clostridium difficile (Isolate ID BI-9) and Clostridium difficile (Isolate ID 027-01) (Table 3).
MICs were determined to be within the activity ranges “A” activity≦1.01 μg/mL; “B” activity>1.0 μg/mL-4.0 μg/mL; “C” activity>4.0 μg/mL-16 μg/mL
For the molecule `CNCC(=O)OCC(Oc1ccc(F)c(C(N)=O)c1F)c1nc(-c2ccc(C(F)(F)F)cc2)c(Br)o1` (centres unmarked) [Compound 39, 2-{5-bromo-4-[4-(trifluoromethyl)phenyl]-1,3-oxazol-2-yl}-2-(3-carbamoyl-2,4-difluorophenoxy)ethyl N-methylglycinate], the MIC is under 1.01 µg/mL.
Turning to `NC(=O)c1c(F)ccc(OC(COC(=O)Cn2cccc2)c2nc(-c3ccc(C(F)(F)F)cc3)c(Br)o2)c1F` (stereo not drawn) [Compound 40, 2-{5-bromo-4-[4-(trifluoromethyl)phenyl]-1,3-oxazol-2-yl}-2-(3-carbamoyl-2,4-difluorophenoxy)ethyl 1H-pyrrol-l-ylacetate], the MIC is under 1.01 µg/mL.
In the case of `NC(=O)c1c(F)ccc(O[C@@H](CO)c2nc(-c3ccc(C(F)(F)F)cc3)c(Br)o2)c1F` [Compound 41, 3-[(1S)-1-{5-bromo-4-[4-(trifluoromethyl)phenyl]-1,3-oxazol-2-yl}-2-hydroxyethoxy]-2,6-difluorobenzamide], the MIC lay in the range of 1 to 4 µg/mL (≈ 1.97 to 7.89 µM).
Take `NC(=O)c1c(F)ccc(OC(COC(=O)CCCN2C(=O)c3ccccc3C2=O)c2nc(-c3ccc(C(F)(F)F)cc3)c(Br)o2)c1F` (centres unmarked) [Compound 42, 2-{5-bromo-4-[4-(trifluoromethyl)phenyl]-1,3-oxazol-2-yl}-2-(3-carbamoyl-2,4-difluorophenoxy)ethyl 4-(1,3-dioxo-1,3-dihydro-2H-isoindo1-2-yl)butanoate]: the MIC was under 1.01 µg/mL.
Consider `NC(=O)c1c(F)ccc(OC(COP(=O)(O)O)c2nc(-c3ccc(C(F)(F)F)cc3)c(Br)o2)c1F` (centres unmarked) [Compound 43, 2-{5-bromo-4-[4-(trifluoromethyl)phenyl]-1,3-oxazol-2-yl}-2-(3-carbamoyl-2,4-difluorophenoxy)ethyl dihydrogen phosphate], for which the MIC was 1 to 4 µg/mL.
On to `CCOC(=O)COCC(Oc1ccc(F)c(C(N)=O)c1F)c1nc(-c2ccc(C(F)(F)F)cc2)c(Br)o1` (centres unmarked) [Compound 44, ethyl [2-{5-bromo-4-[4-(trifluoromethyl)phenyl]-1,3-oxazol-2-yl}-2-(3-carbamoyl-2,4-difluorophenoxy)ethoxy]acetate], for which the MIC was 4 to 16 µg/mL (≈ 6.74 to 27 µM).
As for `CC(=O)OCCCC(Oc1ccc(F)c(C(N)=O)c1F)c1nc(-c2ccc(C(F)(F)F)cc2)c(Br)o1` (centres unmarked) [Compound 45, 4-{5-bromo-4-[4-(trifluoromethyl)phenyl]-1,3-oxazol-2-yl}-4-(3-carbamoyl-2,4-difluorophenoxy)butyl acetate], the figure is 1 to 4 µg/mL.
Consider `NC(=O)c1c(F)ccc(OC(CCCO)c2nc(-c3ccc(C(F)(F)F)cc3)c(Br)o2)c1F` (centres unmarked) [Compound 46, 3-(1-{5-bromo-4-[4-(trifluoromethyl)phenyl]-1,3-oxazol-2-yl}-4-hydroxybutoxy)-2,6-difluorobenzamide], for which the MIC lay in the range of 1 to 4 µg/mL (≈ 1.87 to 7.47 µM).
As to `CNC(=O)CCC(Oc1ccc(F)c(C(N)=O)c1F)c1nc(-c2ccc(C(F)(F)F)cc2)c(Br)o1` (centres unmarked) [Compound 48, 3-[1-{5-bromo-4-[4-(trifluoromethyl)phenyl]-1,3-oxazol-2-yl}-4-(methylamino)-4-oxobutoxy]-2,6-difluorobenzamide], the MIC was in the range of 1 to 4 µg/mL (≈ 1.78 to 7.11 µM).
Regarding `CNC(=O)OCC(Oc1ccc(F)c(C(N)=O)c1F)c1nc(-c2ccc(C(F)(F)F)cc2)c(Br)o1` (centres unmarked) [Compound 50, 2-{5-bromo-4-[4-(trifluoromethyl)phenyl]-1,3-oxazol-2-yl}-2-(3-carbamoyl-2,4-difluorophenoxy)ethyl methylcarbamate], the minimum inhibitory concentration (MIC) is under 1.01 µg/mL.
With `CC(=O)OCC(Oc1ccc(F)c(C(N)=O)c1F)c1nc(-c2ccc(OC(F)(F)F)cc2)c(Br)o1` (centres unmarked) [Compound 51, 2-{5-bromo-4-[4-(trifluoromethoxy)phenyl]-1,3-oxazol-2-yl}-2-(3-carbamoyl-2,4-difluorophenoxy)ethyl acetate], the MIC was under 1.01 µg/mL.
Consider `NC(=O)c1c(F)ccc(OC(CO)c2nc(-c3ccc(OC(F)(F)F)cc3)c(Br)o2)c1F` (centres unmarked) [Compound 52, 3-(1-{5-bromo-4-[4-(trifluoromethoxy)phenyl]-1,3-oxazol-2-yl}-2-hydroxyethoxy)-2,6-difluorobenzamide], for which the MIC was under 1.01 µg/mL.
As to `NC(=O)c1c(F)ccc(OC(CCC(O)CO)c2nc(-c3ccc(C(F)(F)F)cc3)c(Br)o2)c1F` (centres unmarked) [Compound 53, 3-[(1-{5-bromo-4-[4-(trifluoromethyl)phenyl]-1,3-oxazol-2-yl}-4,5-dihydroxypentyl)oxy]-2,6-difluorobenzamide], the MIC was 1 to 4 µg/mL (≈ 1.77 to 7.08 µM).
As to `COC(=O)CCNC(=O)OCC(Oc1ccc(F)c(C(N)=O)c1F)c1nc(-c2ccc(C(F)(F)F)cc2)c(Br)o1` (stereo not drawn) [Compound 54, methyl N-{[2-{5-bromo-4-[4-(trifluoromethyl)phenyl]-1,3-oxazol-2-yl}-2-(3-carbamoyl-2,4-difluorophenoxy)ethoxy]carbonyl}-beta-alaninate], the minimum inhibitory concentration (MIC) lay within 1 to 4 µg/mL (≈ 1.57 to 6.29 µM).
As for `CC(C)(C)OC(=O)NCCNC(=O)OCC(Oc1ccc(F)c(C(N)=O)c1F)c1nc(-c2ccc(C(F)(F)F)cc2)c(Br)o1` (centres unmarked) [Compound 55, 2-{5-bromo-4-[4-(trifluoromethyl)phenyl]-1,3-oxazol-2-yl}-2-(3-carbamoyl-2,4-difluorophenoxy)ethyl tert-butyl ethane-1,2-diylbiscarbamate], the MIC lay within 1 to 4 µg/mL (≈ 1.44 to 5.77 µM).
Consider `CN(CCNC(=O)OCC(Oc1ccc(F)c(C(N)=O)c1F)c1nc(-c2ccc(C(F)(F)F)cc2)c(Br)o1)C(=O)OC(C)(C)C` (centres unmarked) [Compound 56, tert-butyl [2-({[2-{5-bromo-4-[4-(trifluoromethyl)phenyl]-1,3-oxazol-2-yl}-2-(3-carbamoyl-2,4-difluorophenoxy)ethoxy]carbonyl}amino)ethyl]methyl carbamate (non-preferred name)], for which the MIC was in the range of 1 to 4 µg/mL (≈ 1.41 to 5.65 µM).
On to `NC(=O)c1c(F)ccc(OC(COC(=O)N2CCOCC2)c2nc(-c3ccc(C(F)(F)F)cc3)c(Br)o2)c1F` (centres unmarked) [Compound 58, 2-{5-bromo-4-[4-(trifluoromethyl)phenyl]-1,3-oxazol-2-yl}-2-(3-carbamoyl-2,4-difluorophenoxy)ethyl morpholine-4-carboxylate], for which the MIC was in the range of 4 to 16 µg/mL (≈ 6.45 to 25.8 µM).
For the molecule `NC(=O)c1c(F)ccc(OC(COC(=O)NCCO)c2nc(-c3ccc(C(F)(F)F)cc3)c(Br)o2)c1F` (centres unmarked) [Compound 59, 2-{5-bromo-4-[4-(trifluoromethyl)phenyl]-1,3-oxazol-2-yl}-2-(3-carbamoyl-2,4-difluorophenoxy)ethyl (2-hydroxyethyl)carbamate], the MIC is under 1.01 µg/mL.
As for `COCCNC(=O)OCC(Oc1ccc(F)c(C(N)=O)c1F)c1nc(-c2ccc(C(F)(F)F)cc2)c(Br)o1` (centres unmarked) [Compound 60, 2-{5-bromo-4-[4-(trifluoromethyl)phenyl]-1,3-oxazol-2-yl}-2-(3-carbamoyl-2,4-difluorophenoxy)ethyl (2-methoxyethyl)carbamate], the figure is under 1.01 µg/mL; as for `NC(=O)c1c(F)ccc(OC(COC(=O)NCc2ccccn2)c2nc(-c3ccc(C(F)(F)F)cc3)c(Br)o2)c1F` (centres unmarked) [Compound 61, 2-{5-bromo-4-[4-(trifluoromethyl)phenyl]-1,3-oxazol-2-yl}-2-(3-carbamoyl-2,4-difluorophenoxy)ethyl (pyridin-2-ylmethyl)carbamate], 1 to 4 µg/mL (≈ 1.56 to 6.24 µM); as for `NC(=O)c1c(F)ccc(OC(COC(=O)NCc2cccnc2)c2nc(-c3ccc(C(F)(F)F)cc3)c(Br)o2)c1F` (centres unmarked) [Compound 62, 2-{5-bromo-4-[4-(trifluoromethyl)phenyl]-1,3-oxazol-2-yl}-2-(3-carbamoyl-2,4-difluorophenoxy)ethyl (pyridin-3-ylmethyl)carbamate], 1 to 4 µg/mL (≈ 1.56 to 6.24 µM).
With `NC(=O)c1c(F)ccc(OC(COC(=O)NCc2ccncc2)c2nc(-c3ccc(C(F)(F)F)cc3)c(Br)o2)c1F` (centres unmarked) [Compound 63, 2-{5-bromo-4-[4-(trifluoromethyl)phenyl]-1,3-oxazol-2-yl}-2-(3-carbamoyl-2,4-difluorophenoxy)ethyl (pyridin-4-ylmethyl)carbamate], the MIC was under 1.01 µg/mL.
As for `Cc1nnc(CNC(=O)OCC(Oc2ccc(F)c(C(N)=O)c2F)c2nc(-c3ccc(C(F)(F)F)cc3)c(Br)o2)o1` (centres unmarked) [Compound 65, 2-{5-bromo-4-[4-(trifluoromethyl)phenyl]-1,3-oxazol-2-yl}-2-(3-carbamoyl-2,4-difluorophenoxy)ethyl [(5-methyl-1,3,4-oxadiazol-2-yl)methyl]carbamate], the MIC lay in the range of 1 to 4 µg/mL (≈ 1.55 to 6.19 µM).
Take `NC(=O)c1c(F)ccc(OC(COC(=O)Nc2ccncc2)c2nc(-c3ccc(C(F)(F)F)cc3)c(Br)o2)c1F` (centres unmarked) [Compound 67, 2-{5-bromo-4-[4-(trifluoromethyl)phenyl]-1,3-oxazol-2-yl}-2-(3-carbamoyl-2,4-difluorophenoxy)ethyl pyridin-4-ylcarbamate]: the minimal inhibitory concentration (MIC) was 1 to 4 µg/mL (≈ 1.59 to 6.38 µM).
Then `Cc1noc(CNC(=O)OCC(Oc2ccc(F)c(C(N)=O)c2F)c2nc(-c3ccc(C(F)(F)F)cc3)c(Br)o2)n1` (centres unmarked) [Compound 68, 2-{5-bromo-4-[4-(trifluoromethyl)phenyl]-1,3-oxazol-2-yl}-2-(3-carbamoyl-2,4-difluorophenoxy)ethyl [(3-methyl-1,2,4-oxadiazol-5-yl)methyl]carbamate], with 1 to 4 µg/mL (≈ 1.55 to 6.19 µM); and `CSc1oc(C(CO)Oc2ccc(F)c(C(N)=O)c2F)nc1-c1ccc(C(F)(F)F)cc1` (centres unmarked) [Compound 69, 2,6-difluoro-3-(2-hydroxy-1-{5-(methylthio)-4-[4-(trifluoromethyl)phenyl]-1,3-oxazol-2-yl}ethoxy)benzamide], with under 1.01 µg/mL.
